Laboratory results published in patent US20110237607A1, “SUBSTITUTED PURINYL-PYRAZOL DERIVATIVES AND THEIR USE AS POTASSIUM CHANNEL MODULATORS” (NEUROSEARCH A/S, priority 2008, published 2011).

Target: T1, hSK3 channels (Homo sapiens, UniProt Q9UGI6)
T1 construct: expressed in transfected cells; host or cells: HEK293
Assay: Whole-cell patch-clamp recording of SK3 current in HEK293 cells expressing hSK3 channels
Type: cell-based
Experimental: The ionic current through small-conductance Ca^2+-activated K^+ channels (SK channels, subtype 3) is recorded using the whole-cell configuration of the patch-clamp technique in a classic patch-clamp set-up using HEK293 tissue culture cells expressing hSK3 channels as described in e.g. WO 2006/100212.
The SC100 value determined is defined as the Stimulating Concentration required for increasing the baseline current by 100%. The below SC100 values are an indication of the SK3 activating properties of the compounds of the invention.

| SC100 (Stimulating Concentration required for increasing the baseline current by 100%) | SMILES |
| --- | --- |
| 0.04 µM | Cc1cc(C)n(-c2nc(NC3Cc4ccccc4C3)c3ncn(C)c3n2)n1 [Compound 5.1, [2-(3,5-Dimethyl-pyrazol-1-yl)-9-methyl-9H-purin-6-yl]-indan-2-yl-amine] |
| 0.10 µM | Cc1ccn(-c2nc(NC3Cc4ccccc4C3)c3ncn(C)c3n2)n1 [Compound 5.2, Indan-2-yl-[9-methyl-2-(3-methyl-pyrazol-1-yl)-9H-purin-6-yl]-amine] |
